Measured values published in PubChem BioAssay AID248 (DTP/NCI, 2004).
Values joined by “and” are separate entries in the source; they are usually repeats but may differ in a detail not shown here. Equal entries are not always repeated. Toxic doses and inconclusive results are not listed. Rule as the data show it: active = T/C of 150% or more; inactive = T/C below 125%.

System: L1210 leukemia ip in BDF1 mice, survival T/C
Experiment: NCI In Vivo Anticancer Drug Screen. Data for tumor model L1210 Leukemia (intraperitoneal) in B6D2F1 (BDF1) mice
Conditions: endpoint: mean survival time, higher = longer survival
Procedure, shortened: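 Survival endpoint. Drug-treated group vs vehicle group, expressed as T divided by C. Tumor passaged by transplantation.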

[1] = dose: 100.0 mg/kg/injection, schedule: Q01DX001 (ip), vehicle: carboxymethylcellulose (CMC)
[2] = dose: 100.0 mg/kg/injection, schedule: Q04DX002 (ip), vehicle: Klucel (hydroxypropylcellulose) (HPC)
[3] = dose: 200.0 mg/kg/injection, schedule: Q01DX001 (ip), vehicle: carboxymethylcellulose (CMC)
[4] = dose: 400.0 mg/kg/injection, schedule: Q01DX001 (ip), vehicle: carboxymethylcellulose (CMC)
[5] = dose: 400.0 mg/kg/injection, schedule: Q04DX002 (ip), vehicle: Klucel (hydroxypropylcellulose) (HPC)
[6] = dose: 50.0 mg/kg/injection, schedule: Q04DX003 (ip), vehicle: Klucel (hydroxypropylcellulose) (HPC)
[7] = dose: 100.0 mg/kg/injection, schedule: Q04DX003 (ip), vehicle: Klucel (hydroxypropylcellulose) (HPC)
[8] = dose: 200.0 mg/kg/injection, schedule: Q04DX003 (ip), vehicle: Klucel (hydroxypropylcellulose) (HPC)
[9] = dose: 400.0 mg/kg/injection, schedule: Q04DX003 (ip), vehicle: Klucel (hydroxypropylcellulose) (HPC)
[10] = dose: 100.0 mg/kg/injection, schedule: Q01DX001 (ip), vehicle: saline
[11] = dose: 100.0 mg/kg/injection, schedule: Q04DX003 (ip), vehicle: saline
[12] = dose: 200.0 mg/kg/injection, schedule: Q01DX001 (ip), vehicle: saline
[13] = dose: 100.0 mg/kg/injection, schedule: Q01DX009 (ip), vehicle: Klucel (hydroxypropylcellulose) (HPC)
[14] = dose: 200.0 mg/kg/injection, schedule: Q01DX009 (ip), vehicle: Klucel (hydroxypropylcellulose) (HPC)
[15] = dose: 400.0 mg/kg/injection, schedule: Q01DX009 (ip), vehicle: Klucel (hydroxypropylcellulose) (HPC)
[16] = dose: 50.0 mg/kg/injection, schedule: Q01DX001 (ip), vehicle: saline
[17] = dose: 400.0 mg/kg/injection, schedule: Q01DX001 (ip), vehicle: saline
[18] = dose: 50.0 mg/kg/injection, schedule: Q01DX009 (ip), vehicle: saline with Tween-80

Measured: T/C

CSc1ccc(OC(=O)Nc2cccc(Cl)c2)cc1C
inactive: [1] 94 % of control | dose: 100.0 mg/kg/injection, schedule: Q01DX009 (ip), vehicle: carboxymethylcellulose (CMC) 98 % of control | [2] 101 % of control | dose: 100.0 mg/kg/injection, schedule: Q04DX002 (ip), vehicle: carboxymethylcellulose (CMC) 96 % of control and 101 % of control | dose: 100.0 mg/kg/injection, schedule: Q04DX003 (ip), vehicle: carboxymethylcellulose (CMC) 101 % of control | [3] 97 % of control | dose: 200.0 mg/kg/injection, schedule: Q01DX009 (ip), vehicle: carboxymethylcellulose (CMC) 100 % of control and 106 % of control | dose: 200.0 mg/kg/injection, schedule: Q04DX002 (ip), vehicle: Klucel (hydroxypropylcellulose) (HPC) 95 % of control | dose: 200.0 mg/kg/injection, schedule: Q04DX002 (ip), vehicle: carboxymethylcellulose (CMC) 95 % of control and 88 % of control | dose: 200.0 mg/kg/injection, schedule: Q04DX003 (ip), vehicle: carboxymethylcellulose (CMC) 94 % of control | [4] 87 % of control | dose: 400.0 mg/kg/injection, schedule: Q01DX009 (ip), vehicle: carboxymethylcellulose (CMC) 93 % of control and 87 % of control | [5] 108 % of control | dose: 400.0 mg/kg/injection, schedule: Q04DX002 (ip), vehicle: carboxymethylcellulose (CMC) 95 % of control and 103 % of control | dose: 400.0 mg/kg/injection, schedule: Q04DX003 (ip), vehicle: carboxymethylcellulose (CMC) 92 % of control

CC(C)OC(=O)NC1C=CC=CC=C1
inactive: [6] 98 % of control | [7] 93 % of control | [8] 104 % of control | [9] 106 % of control

II
inactive: dose: 12.0 mg/kg/injection, schedule: Q01DX009 (ip), vehicle: acetone 96 % of control | dose: 25.0 mg/kg/injection, schedule: Q01DX009 (ip), vehicle: acetone 93 % of control | dose: 50.0 mg/kg/injection, schedule: Q01DX009 (ip), vehicle: acetone 106 % of control

CC1=C2CCC(C)CC23C2C(=O)OC(=O)C2C1C1C(=O)OC(=O)C13 (stereo not given)
inactive: dose: 25.0 mg/kg/injection, schedule: Q01DX009 (ip), vehicle: saline 100 % of control | dose: 50.0 mg/kg/injection, schedule: Q04DX003 (ip), vehicle: saline 101 % of control | [10] 93 % of control | [11] 90 % of control | [12] 108 % of control

CCCCN(C)/N=N/c1nn[nH]n1
inactive: [2] 92 % of control | [5] 113 % of control

CCCCCCCCCCCCCCCCCc1cc(=O)n(-c2ccc(NC(=O)CCC(=O)OC)cc2)n1C
inactive: dose: 12.5 mg/kg/injection, schedule: Q04DX003 (ip), vehicle: Klucel (hydroxypropylcellulose) (HPC) 93 % of control | [6] 86 % of control

CC(CS(=O)(=O)O)N1CCOCC1 (stereo not given)
inactive: dose: 100.0 mg/kg/injection, schedule: Q01DX009 (ip), vehicle: saline 95 % of control | [11] 100 % of control | dose: 200.0 mg/kg/injection, schedule: Q01DX009 (ip), vehicle: saline 98 % of control | dose: 200.0 mg/kg/injection, schedule: Q04DX003 (ip), vehicle: saline 101 % of control | dose: 400.0 mg/kg/injection, schedule: Q01DX009 (ip), vehicle: saline 102 % of control | dose: 400.0 mg/kg/injection, schedule: Q04DX003 (ip), vehicle: saline 97 % of control

CN(C)C=Nc1ccccc1
inactive: [13] 109 % of control | [7] 111 % of control | [14] 101 % of control | [8] 97 % of control | [15] 100 % of control | [9] 93 % of control

CC(O)CNC1CCC(C)CC1 (stereo not given)
inactive: dose: 75.0 mg/kg/injection, schedule: Q01DX001 (ip), vehicle: acid diluted with saline 96 % of control | dose: 150.0 mg/kg/injection, schedule: Q01DX001 (ip), vehicle: acid diluted with saline 100 % of control

Nc1c(Cl)c(Cl)c(Cl)c(Cl)c1C(=O)O
inactive: dose: 40.0 mg/kg/injection, schedule: Q01DX009 (ip), vehicle: Klucel (hydroxypropylcellulose) (HPC) 105 % of control | dose: 75.0 mg/kg/injection, schedule: Q01DX009 (ip), vehicle: Klucel (hydroxypropylcellulose) (HPC) 103 % of control | dose: 75.0 mg/kg/injection, schedule: Q04DX003 (ip), vehicle: saline 104 % of control | [13] 93 % of control | dose: 150.0 mg/kg/injection, schedule: Q01DX009 (ip), vehicle: Klucel (hydroxypropylcellulose) (HPC) 97 % of control and 122 % of control | dose: 150.0 mg/kg/injection, schedule: Q04DX003 (ip), vehicle: saline 98 % of control | [14] 93 % of control

COC(=O)c1nc(Cl)nc(SC)c1Cl
inactive: [7] 96 % of control | [8] 110 % of control | [9] 96 % of control

Cc1ncc(CO)c2c1OC(C)(C)OC2
inactive: [16] 97 % of control | [10] 100 % of control | [12] 103 % of control | [17] 100 % of control

CCCCCCCCC(=O)NCc1ccc(OC)cc1
inactive: dose: 25.0 mg/kg/injection, schedule: Q01DX009 (ip), vehicle: other 93 % of control | dose: 50.0 mg/kg/injection, schedule: Q01DX009 (ip), vehicle: other 90 % of control | dose: 100.0 mg/kg/injection, schedule: Q01DX009 (ip), vehicle: other 100 % of control | dose: 100.0 mg/kg/injection, schedule: Q04DX003 (ip), vehicle: other 95 % of control | dose: 200.0 mg/kg/injection, schedule: Q01DX009 (ip), vehicle: other 92 % of control | dose: 200.0 mg/kg/injection, schedule: Q04DX003 (ip), vehicle: other 90 % of control | dose: 400.0 mg/kg/injection, schedule: Q01DX009 (ip), vehicle: other 91 % of control | dose: 400.0 mg/kg/injection, schedule: Q04DX003 (ip), vehicle: other 88 % of control

Nc1nc(=O)n(C2CCCO2)cc1Br (stereo not given)
inactive: [10] 100 % of control | [12] 103 % of control | [17] 87 % of control

COc1cc(Cc2cc(OC)c(O)c(OC)c2)cc(OC)c1O
inactive: [13] 107 % of control | [7] 92 % of control | [14] 93 % of control | [8] 97 % of control | [15] 101 % of control | [9] 95 % of control

O=C(N/N=C/c1cccc(F)c1)c1ccc(Cl)cc1
inactive: [18] 94 % of control | dose: 100.0 mg/kg/injection, schedule: Q01DX009 (ip), vehicle: saline with Tween-80 91 % of control | dose: 200.0 mg/kg/injection, schedule: Q01DX009 (ip), vehicle: saline with Tween-80 94 % of control

O=C(/C=C(\Br)c1ccccc1)c1ccccc1
inactive: dose: 25.0 mg/kg/injection, schedule: Q01DX005 (ip), vehicle: saline with Tween-80 93 % of control | dose: 25.0 mg/kg/injection, schedule: Q01DX009 (ip), vehicle: saline with Tween-80 88 % of control | dose: 25.0 mg/kg/injection, schedule: Q04DX002 (ip), vehicle: saline with Tween-80 102 % of control | dose: 50.0 mg/kg/injection, schedule: Q01DX005 (ip), vehicle: saline with Tween-80 97 % of control | [18] 98 % of control | dose: 50.0 mg/kg/injection, schedule: Q04DX002 (ip), vehicle: saline with Tween-80 109 % of control | dose: 100.0 mg/kg/injection, schedule: Q01DX005 (ip), vehicle: saline with Tween-80 108 % of control | dose: 100.0 mg/kg/injection, schedule: Q04DX002 (ip), vehicle: saline with Tween-80 91 % of control

O=c1[nH]c(=S)[nH]c(-c2ccccc2)c1Cc1ccccc1
inactive: [16] 100 % of control | [10] 96 % of control | [12] 94 % of control | [17] 94 % of control

Cc1cccc(N2CCN(P(=S)(c3ccccc3)N3CCN(c4cccc(C)c4)CC3)CC2)c1
inactive: [1] 89 % of control | [3] 95 % of control | [4] 86 % of control

COC(=O)c1cc(=O)c2c(=O)[nH]c(=O)n(C)c2[nH]1
inactive: [7] 94 % of control | [8] 101 % of control | [9] 95 % of control

NC(N)=NCCCC(N)C(=O)NCCCCCCNC(=O)C(N)CCCN=C(N)N (stereo not given)
inactive: dose: 10.0 mg/kg/injection, schedule: Q01DX Z (ip), vehicle: saline 97 % of control | dose: 30.0 mg/kg/injection, schedule: Q01DX Z (ip), vehicle: saline 108 % of control | dose: 100.0 mg/kg/injection, schedule: Q01DX Z (ip), vehicle: saline 90 % of control
